Results reported in patent US20030055072A1, “Methods of inhibiting Pin1-associated states using a fredericamycin a compound” (priority 2000, published 2003).
Read-outs that look alike come from different tables or passages of the source.

Key:
[1] = system: glioblastoma cells; conditions: Misra et al. 1982; cited from earlier work
[2] = target: T1, hCyp18 (Homo sapiens, UniProt P62937); assay: protease-coupled PPIase assay, hCyp18; type: biochemical
T1 construct: purchased Sigma
Protocol: (§1) PPIase activity measurements were performed by the protease-coupled PPIase assay developed by Fischer et al. (1984). For hPin1 activity measurements, bovine trypsin (final concentration 0.21 mg/mL, Sigma) was used as an isomer-specific protease and Ac-Ala-Ala-Ser(P)-Pro-Arg-pNA (Jerini, Germany) as a substrate. PPIase activity of hFKBP12 (Sigma) and hCyp18 (Sigma) was determined with the peptide substrate Suc-Ala-Phe-Pro-Phe-pNA (Bachem) and the protease α-chymotrypsin (final concentration 0.41 mg/mL, Sigma). The test was performed by observing the released 4-nitroanilide at 390 nm with a Hewlett-Packard 8453 UV-vis spectrophotometer at 10° C. The total reaction volume was adjusted to 1.23 mL by mixing appropriate volumes of 35 mM HEPES (pH 7.8) with enzyme and effector solutions. […] The pseudo-first-order rate constant kobs for cis/trans isomerization in the presence of PPlase and the first-order rate constant k0 of the unkatalyzed cis/trans isomerization were calculated using the Kinetics Software of Hewlett-Packard as well as SigmaPlot2000 for Windows 6.0 (SPSS). The Ki value for inhibition of hPin1 PPIase activity by fredericamycin A at constant concentrations of substrate ([S0]<<KM) was calculated by fitting the data according to the equation for a competitive “tight-binding” inhibitor using SigmaPlot2000.

[3] = target: T2, hFKBP12 (Homo sapiens, UniProt P62942); assay: protease-coupled PPIase assay, hFKBP12; type: biochemical
T2 construct: purchased Sigma
Protocol: as §1

[4] = system: DU-145 prostate tumor; assay: tumor growth in scid mouse human prostate tumor model; type: in vivo, scid mice
[5] = target: hPin1 (Homo sapiens, UniProt Q13526); assay: protease-coupled PPIase assay, hPin1; type: biochemical
Protocol: PPIase activity measurements were performed by the protease-coupled PPIase assay developed by Fischer et al. (1984). For hPin1 activity measurements, bovine trypsin (final concentration 0.21 mg/mL, Sigma) was used as an isomer-specific protease and Ac-Ala-Ala-Ser(P)-Pro-Arg-pNA (Jerini, Germany) as a substrate. PPIase activity of hFKBP12 (Sigma) and hCyp18 (Sigma) was determined with the peptide substrate Suc-Ala-Phe-Pro-Phe-pNA (Bachem) and the protease α-chymotrypsin (final concentration 0.41 mg/mL, Sigma). The test was performed by observing the released 4-nitroanilide at 390 nm with a Hewlett-Packard 8453 UV-vis spectrophotometer at 10° C. The total reaction volume was adjusted to 1.23 mL by mixing appropriate volumes of 35 mM HEPES (pH 7.8) with enzyme and effector solutions. Fredericamycin A (BioLeads, Germany) was freshly diluted from a 1 mg/mL stock solution in DMSO. If not otherwise indicated, fredericamycin A (0-6 μM) was pre-incubated with the enzyme for 5 min (10° C.). Prior to the start of reaction by addition of the respective protease, 2 μL of the peptide substrate stock solution (10 mg/mL in DMSO) were added. The amount of organic solvent was kept constant within each experiment (<0.1%). The pseudo-first-order rate constant kobs for cis/trans isomerization in the presence of PPlase and the first-order rate constant k0 of the unkatalyzed cis/trans isomerization were calculated using the Kinetics Software of Hewlett-Packard as well as SigmaPlot2000 for Windows 6.0 (SPSS). The Ki value for inhibition of hPin1 PPIase activity by fredericamycin A at constant concentrations of substrate ([S0]<<KM) was calculated by fitting the data according to the equation for a competitive “tight-binding” inhibitor using SigmaPlot2000.
FIG. 1: Ki value for hPin1 PPlase activity inhibition by fredericamycin A. PPIase activity measurements were performed as described in Materials and Methods. 6.0 nM of Pin1 were pre-incubated with 0-4.8 μM fredericamycin A in 35 mM HEPES (pH 7.8) at […] for 5 min. Ac-Ala-Ala-Ser(P)-Pro-Arg-pNA (21.9 μM) was used as a substrate. Reactions were started by addition of trypsin.
FIG. 2: Time dependency of Pin1 PPIase activity inhibition by fredericamycin A. PPIase activity measurements were performed as described in Materials and Methods. 6.0 nM hPin1 was incubated for 0, 5, 10, 15, 20, 25 and 30 min with 0 (●) and 1 μM (♦) fredericamycin, respectively.
FIG. 3: Reversibility of the interaction between hPin1 and fredericamycin A. 209 nM of hPin1 were incubated with 0 (▪) and 0.16 (□) […] fredericamycin A and the remaining PPIase activity of hPin1 was measured before and after micro-separation through a semipermeable membrane using the protease-coupled PPlase assay according to Materials and Methods.

[6] = Day 7 (before dosing), group 0.34 mg/kg ip Days 16-20
[7] = Day 12 (before dosing), group 0.34 mg/kg ip Days 16-20
[8] = Day 14 (before dosing), group 0.34 mg/kg ip Days 16-20
[9] = Day 18, 0.34 mg/kg ip Days 16-20
[10] = Day 21, 0.34 mg/kg ip Days 16-20
[11] = Day 25, 0.34 mg/kg ip Days 16-20
[12] = Day 28, 0.34 mg/kg ip Days 16-20
[13] = Day 32, 0.34 mg/kg ip Days 16-20

Chain of hPin1 (Q13526 whole entry): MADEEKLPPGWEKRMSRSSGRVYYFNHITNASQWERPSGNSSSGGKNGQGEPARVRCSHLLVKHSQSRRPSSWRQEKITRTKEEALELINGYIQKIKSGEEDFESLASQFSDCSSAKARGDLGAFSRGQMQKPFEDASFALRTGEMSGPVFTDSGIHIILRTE
T2 sequence (P62942 whole entry): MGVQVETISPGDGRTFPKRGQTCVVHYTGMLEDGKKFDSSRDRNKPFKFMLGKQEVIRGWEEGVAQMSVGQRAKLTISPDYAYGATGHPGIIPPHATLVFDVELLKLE
T1 sequence (P62937 whole entry): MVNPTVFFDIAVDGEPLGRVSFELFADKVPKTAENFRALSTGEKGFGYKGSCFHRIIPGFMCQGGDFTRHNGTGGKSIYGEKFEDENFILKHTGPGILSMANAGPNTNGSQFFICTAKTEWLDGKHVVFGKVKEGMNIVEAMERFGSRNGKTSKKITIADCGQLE

C/C=C/C=C/c1cc2cc3c(c(O)c2c(=O)[nH]1)C1(CC3)C(=O)c2c(O)c3c(c(O)c2C1=O)C(=O)C(OC)=CC3=O (stereo not drawn) [fredericamycin A]
death of mice (0.67 mg/kg ip from Day 16, ten mice per group): All of the mice receiving 0.67 mg/kg of Fred A died by about Day 17 | number of mice that lived until Day 32 (mouse, in vivo): 2 | anti-tumor activity against glioblastoma cells [1]: comparable to 1,3-bis(2-chloroethyl)-1-nitrosourea (BCNU) | IC50 [2]: 5.1 ± 2 µM | IC50 [3]: 6.2 ± 1.7 µM | Tumor Volume [4, 6]: 0.02 cm^3 | Tumor Volume ([4]; Day 7 (before dosing), group 0.67 mg/kg ip Days 16-20): 0.04 cm^3 | Tumor Volume [4, 7]: 0.05 cm^3 | Tumor Volume ([4]; Day 12 (before dosing), group 0.67 mg/kg ip Days 16-20): 0.04 cm^3 | Tumor Volume [4, 8]: 0.05 cm^3 | Tumor Volume ([4]; Day 14 (before dosing), group 0.67 mg/kg ip Days 16-20): 0.07 cm^3 | Tumor Volume [4, 9]: 0.03 cm^3 | Tumor Volume ([4]; Day 18, 0.67 mg/kg ip Days 16-20): 0.05 cm^3 | Tumor Volume [4, 10]: 0.11 cm^3 | Tumor Volume [4, 11]: 0.11 cm^3 | Tumor Volume [4, 12]: 0.22 cm^3 | Tumor Volume [4, 13]: 0.35 cm^3 | reduction of mean tumor volume as compared to the DMSO or Mitox controls ([4]; FIG. 4, DU-145 tumor bearing scid mice, ip Days 16-20): 50% | Ki ([5]; 6.0 nM Pin1, 5 min pre-incubation, 35 mM HEPES pH 7.8, substrate Ac-Ala-Ala-Ser(P)-Pro-Arg-pNA, competitive tight-binding fit, read-out: Ki value for inhibition of the PPIase activity of hPin1): 0.82 ± 0.608 µM | time dependency of inhibition of hPin1 PPIase activity ([5]; 6.0 nM hPin1, 1 μM inhibitor, 0-30 min incubation): no time dependency of inhibition within 30 min | remaining hPin1 PPIase activity ([5]; 209 nM hPin1, 0.16 mM inhibitor, before micro-concentration): 23% | hPin1 reactivation after micro-concentration through semi-permeable membrane (reversibility) ([5]; 209 nM hPin1, 0.16 mM inhibitor, buffer replaced 3 times, compared to inhibitor-free enzyme control): 97.5% | preference for the parvulin hPin1 over the other tested PPIases ([5]; hPin1 versus hCyp18 and hFKBP12): 6- to 7 fold | IC50 ([5]; protease-coupled PPIase assay): 0.89 ± 0.05 µM

O=C1c2c(O)ccc(O)c2C(=O)c2c(NCCNCCO)ccc(NCCNCCO)c21 [Mitox, reference compound]
mice that died after 32 days (0.34 mg/kg ip Days 16-20, ten mice per group): None | Mean Mouse Weight [6]: 27.98 g | Mean Mouse Weight [7]: 28.32 g | Mean Mouse Weight [9]: 27.39 g | Mean Mouse Weight [11]: 27.38 g | Mean Mouse Weight [13]: 28.04 g | Mean Mouse Weight (Day −6 (before dosing), group 0.34 mg/kg ip Days 16-20): 26.36 g | Tumor Volume [4, 6]: 0.02 cm^3 | Tumor Volume [4, 7]: 0.05 cm^3 | Tumor Volume [4, 8]: 0.09 cm^3 | Tumor Volume [4, 9]: 0.19 cm^3 | Tumor Volume [4, 10]: 0.22 cm^3 | Tumor Volume [4, 11]: 0.37 cm^3 | Tumor Volume [4, 12]: 0.53 cm^3 | Tumor Volume [4, 13]: 0.72 cm^3
